Test systems include SF-539; HCC 2998; SF-268; SK-MEL-28; DMS-273; A549; LOX IMVI; EKVX; KM12; MOLT-4; UACC-62; HT-29; A498; HL-60; SNB-75; HOP-92; NCI/ADR-RES; Hs-578T; PC-3; BT-549.
Common to all, as to test: NCI anticancer screen, dose series, 48 h

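Following 48 hours of exposure in 96-well plates, responses at five concentrations were used to interpolate endpoints linearly. GI50 is the concentration that inhibits growth by half.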 Activity calls are given as the source filed them. Cut-off read from the data, not from the text of the source: active = GI50 up to about 1.1 µM and inactive = higher.

For `COc1ccc(/C=C/C(=O)c2c(-c3ccccc3)nn(C)c(=O)c2N2CC2C)cc1` (stereo not given), the GI50 was 39.1 µM (inactive) in the experiment on SF-539; 26.6 µM (inactive) with HCC 2998; 26.8 µM (inactive) in the experiment on SF-268; 52.6 µM (inactive) with SK-MEL-28; 21 µM (inactive) in the experiment with DMS-273; 43.2 µM (inactive) in the experiment with A549. Also, the GI50 is 16.3 µM (inactive) in the experiment with LOX IMVI; 19.6 µM (inactive) in the experiment with EKVX; 30.3 µM (inactive) in the experiment on KM12; 25.5 µM (inactive) in the experiment on MOLT-4; 19 µM (inactive) with UACC-62; 32.4 µM (inactive) in the experiment with HT-29. For the same compound, the GI50 in the experiment on A498 is 23.9 µM (inactive); with HL-60 it was 17.5 µM (inactive); in the experiment on SNB-75, 24.8 µM (inactive); in the experiment on HOP-92, 29 µM (inactive).
Take `COc1cc2[nH]c3c(c2cc1OC)CCN[C@@]31CC[C@@]2(CC3c4c(cc(OC)c(O)c42)CCN3C)C[C@@H]1OC` (stereo not given in full): the GI50 with SF-539 was 14.9 µM (inactive); in the experiment with HCC 2998 it was 31.9 µM (inactive); with NCI/ADR-RES it was 48.8 µM (inactive); with SF-268, 47.1 µM (inactive); in the experiment on SK-MEL-28, 17.9 µM (inactive); with Hs-578T, 19.7 µM (inactive). In addition, the GI50 with DMS-273 was 41.2 µM (inactive); in the experiment on PC-3 it was 48.6 µM (inactive); with BT-549, 25.2 µM (inactive); in the experiment on A549, 63 µM (inactive); in the experiment on LOX IMVI, 18.8 µM (inactive); with EKVX, 36.4 µM (inactive). Further, the GI50 with KM12 is 42.6 µM (inactive); with MOLT-4 it was 23.4 µM (inactive); in the experiment on UACC-62, 22.9 µM (inactive); in the experiment on HT-29, 26.2 µM (inactive); in the experiment on A498, 32 µM (inactive); in the experiment on HL-60, 16.3 µM (inactive). The figures for the GI50 with SNB-75 and in the experiment on HOP-92 were 18.3 µM (inactive) and 22.2 µM (inactive), respectively.
With `Cc1cc2c(cc1C)[n+]([O-])c(-c1c(Cl)cccc1Cl)c(N)[n+]2[O-]`, the GI50 in the experiment on SF-539 was 27.9 µM (inactive); in the experiment with HCC 2998, 25.8 µM (inactive); in the experiment with SF-268, 32.9 µM (inactive); with SK-MEL-28 it was 28.2 µM (inactive); with DMS-273 it was 32.1 µM (inactive); with A549, 30.1 µM (inactive). Moreover, the GI50 in the experiment with LOX IMVI was 44.7 µM (inactive); in the experiment with EKVX, 46.3 µM (inactive); in the experiment on KM12, 37.2 µM (inactive); with MOLT-4 it was 26.2 µM (inactive); in the experiment on UACC-62, 23.2 µM (inactive); with HT-29, 39.6 µM (inactive). The GI50 with A498 was 26.2 µM (inactive); in the experiment with HL-60, 26 µM (inactive); with SNB-75, > 100 µM (inactive); in the experiment on HOP-92, > 100 µM (inactive).
For `COc1cc(C(=O)NC2CCc3cc(OC)c(OC)c(OC)c3-c3ccc(OC)c(=O)cc32)cc(OC)c1OC` (stereo not given), the GI50 is 0.0228 µM (active) with SF-539; 0.0776 µM (active) in the experiment on HCC 2998; 18.2 µM (inactive) with NCI/ADR-RES; 0.0828 µM (active) in the experiment on SF-268; 0.192 µM (active) in the experiment with SK-MEL-28; 0.025 µM (active) in the experiment on Hs-578T. Also, the GI50 was 0.0316 µM (active) with DMS-273; 0.0807 µM (active) in the experiment on PC-3; 0.083 µM (active) in the experiment on BT-549; 0.431 µM (active) in the experiment with A549; 0.0424 µM (active) in the experiment on LOX IMVI; 12 µM (inactive) with EKVX. Also, the GI50 is 0.036 µM (active) with KM12; 0.0451 µM (active) with MOLT-4; 0.0711 µM (active) in the experiment on UACC-62; 0.0467 µM (active) in the experiment on HT-29; 0.274 µM (active) with A498; 0.0259 µM (active) in the experiment on HL-60. Further, the GI50 in the experiment with SNB-75 is 0.13 µM (active); in the experiment with HOP-92 it was 0.0592 µM (active).
Turning to `O=C(O)CCC(O)=C1S(=O)(=O)OCCOS1(=O)=O`, the GI50 with SF-539, with HCC 2998, in the experiment on NCI/ADR-RES, with SF-268, in the experiment with SK-MEL-28 and with Hs-578T was > 100 µM (inactive) throughout. Further, the GI50 with DMS-273, in the experiment on PC-3, with BT-549, in the experiment with A549, with LOX IMVI and in the experiment with EKVX was > 100 µM (inactive) throughout. In addition, the GI50 in the experiment on KM12, in the experiment on MOLT-4, in the experiment with UACC-62, in the experiment with HT-29, in the experiment with A498 and in the experiment with SNB-75 was > 100 µM (inactive) throughout. The GI50 in the experiment with HOP-92 was > 100 µM (inactive).
As for `CCOC(=O)NC(=O)c1cn(CCN2CCN(C(=O)NCCCCCCNC(=O)N3CCN(CCn4cc(C(=O)NC(=O)OCC)c(=O)[nH]c4=O)CC3)CC2)c(=O)[nH]c1=O`, the GI50 with SF-539, with HCC 2998, with SF-268, with SK-MEL-28, in the experiment on DMS-273 and in the experiment with A549 was > 100 µM (inactive) in each case. The GI50 in the experiment with LOX IMVI, with EKVX, with KM12, in the experiment on UACC-62, with HT-29 and with A498 was > 100 µM (inactive) in each case. Moreover, the GI50 in the experiment on HL-60, with SNB-75 and in the experiment on HOP-92 was > 100 µM (inactive) in each case.
As for `CC(=O)OC1=CC(n2cc(F)c(=O)[nH]c2=O)OC(C)C1=O` (stereo not given), the GI50 with SF-539 was 3.01 µM (inactive); in the experiment on HCC 2998 it was 5.26 µM (inactive); in the experiment on NCI/ADR-RES it was 40.2 µM (inactive); in the experiment on SF-268, 81.5 µM (inactive); in the experiment on SK-MEL-28, 17.7 µM (inactive); with Hs-578T, > 88.3 µM (inactive). For the same compound, the GI50 is 41.5 µM (inactive) in the experiment on DMS-273; 53 µM (inactive) with PC-3; 22.2 µM (inactive) with BT-549; 7.29 µM (inactive) in the experiment on A549; 14.6 µM (inactive) with LOX IMVI; > 88.5 µM (inactive) in the experiment on EKVX. In addition, the GI50 in the experiment on KM12 was 22.8 µM (inactive); with MOLT-4 it was 39.8 µM (inactive); with UACC-62 it was 24.9 µM (inactive); in the experiment with HT-29 it was 10.7 µM (inactive); in the experiment with A498, 10.4 µM (inactive); in the experiment with HL-60, 21.4 µM (inactive). The GI50 with SNB-75 is 51.1 µM (inactive); with HOP-92, > 33.2 µM (inactive).
As for `Cc1c(C(=O)NCCO)[n+]([O-])c2cc(Cl)ccc2[n+]1[O-]`, the GI50 in the experiment with SF-539, in the experiment on HCC 2998, in the experiment with SF-268, with SK-MEL-28, in the experiment with DMS-273 and in the experiment with A549 was > 100 µM (inactive) throughout. Besides, the GI50 with LOX IMVI, with EKVX, with KM12, with MOLT-4, with UACC-62 and in the experiment with HT-29 was > 100 µM (inactive) throughout. Further, the GI50 was > 100 µM (inactive) in the experiment with A498, > 100 µM (inactive) in the experiment on HL-60, 48.5 µM (inactive) in the experiment with SNB-75 and > 100 µM (inactive) with HOP-92.
`OC(c1ccccn1)C1CNc2ccccc21` (stereo not given): the GI50 in the experiment with SF-539, in the experiment on HCC 2998, with SF-268, with SK-MEL-28, in the experiment with DMS-273 and with A549 was > 100 µM (inactive) each time. The GI50 in the experiment on LOX IMVI, in the experiment with EKVX, in the experiment with KM12, in the experiment on MOLT-4, with UACC-62 and with HT-29 was > 100 µM (inactive) in each case. Moreover, the GI50 in the experiment with A498 was > 100 µM (inactive); in the experiment on HL-60, > 100 µM (inactive); in the experiment with SNB-75, 22.1 µM (inactive); in the experiment with HOP-92 it was > 100 µM (inactive).
For `CC[C@](O)(C(=O)O)c1cc2n(c(=O)c1CO)Cc1cc3ccccc3nc1-2`, the GI50 was 0.0697 µM (active) with SF-539; 0.324 µM (active) in the experiment on HCC 2998; 0.0254 µM (active) in the experiment on NCI/ADR-RES; 6.05 µM (inactive) in the experiment on Hs-578T; 0.025 µM (active) in the experiment on DMS-273; 0.131 µM (active) in the experiment on PC-3. For the same compound, the GI50 in the experiment with BT-549 was 0.0791 µM (active); with A549 it was 0.0261 µM (active); with EKVX, 0.0371 µM (active); in the experiment on MOLT-4, 0.0257 µM (active); with UACC-62, 0.025 µM (active); with HT-29, 0.0461 µM (active). Besides, the GI50 was 0.0398 µM (active) with A498, 0.025 µM (active) in the experiment with HL-60, 0.0333 µM (active) with SNB-75 and 0.112 µM (active) in the experiment on HOP-92.
`COc1ccc(NS(=O)(=O)c2ccc(/N=C3\C=C(Nc4ccc(S(=O)(=O)Nc5ccc(OC)nn5)cc4)C(=O)c4ccccc43)cc2)nn1`: the GI50 was 17.7 µM (inactive) with SF-539; 19.6 µM (inactive) in the experiment with HCC 2998; 21.4 µM (inactive) with SF-268; 17.5 µM (inactive) in the experiment with SK-MEL-28; 14.9 µM (inactive) with DMS-273; 17.9 µM (inactive) with A549. Moreover, the GI50 with LOX IMVI was 16.7 µM (inactive); in the experiment with EKVX, 24.8 µM (inactive); in the experiment with KM12 it was 16.7 µM (inactive); in the experiment on MOLT-4 it was 87.9 µM (inactive); with UACC-62, 18.6 µM (inactive); in the experiment with HT-29 it was 20.5 µM (inactive). Moreover, the GI50 is 15.3 µM (inactive) with A498, > 100 µM (inactive) in the experiment on HL-60, 19.8 µM (inactive) in the experiment with SNB-75 and 31 µM (inactive) with HOP-92.
